Experiments:
MDA-MB-453 [1] = conditions: 72 h
Summary of the method: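 Compound dissolved in 5 µl medium was placed in 384-well plates before 20 µl of breast cancer cell suspension was added, and the plates were incubated for 72 h. Cells then received 2.5 µl CellTiter-Blue for 2 h at 37 °C, and fluorescence was read at 560/590 nm. EC50 values come from percent-inhibition dose-response fits that were censored at the highest concentration, with plates normalised to vehicle and a positive kill control and rows with a zero drug sensitivity score excluded.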

BT-474 [2] = test: normalised viability (% of control), CellTiter-Blue; higher = more viable cells (about 100 = DMSO control); conditions: incubation time: 72 h
Summary of the method: (§1)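 The reported quantity is normalised viability at a single listed concentration of the series. Compound in 5 µl medium was pre-dispensed into 384-well plates and 20 µl of breast cancer cell suspension was added for 72 h. A 2 h, 37 °C CellTiter-Blue step (2.5 µl) preceded fluorescence reading at 560/590 nm, and plates were normalised to vehicle (100) and a positive kill control (0).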

CAL-148 [3] = test: as above; conditions: incubation time: 72 h
Summary of the method: as §1

CAL-85-1 [4] = test: as above; conditions: incubation time: 72 h
Summary of the method: as §1

HCC1599 [5] = test: as above; conditions: incubation time: 72 h
Summary of the method: as §1

Hs578T [6] = test: as above; conditions: incubation time: 72 h
Summary of the method: as §1

MDA-MB-231 [7] = test: as above; conditions: incubation time: 72 h
Summary of the method: as §1

MDA-MB-468 [8] = test: as above; conditions: incubation time: 72 h
Summary of the method: as §1

CAL-148 [9] = test: as above; conditions: incubation time: 72 h; remark: listed apart in the source
Summary of the method: as §1

CAL-85-1 [10] = test: as above; conditions: incubation time: 72 h; remark: listed apart in the source
Summary of the method: as §1

HCC1143 [11] = test: as above; conditions: incubation time: 72 h
Summary of the method: as §1

SK-BR-3 [12] = test: as above; conditions: incubation time: 72 h
Summary of the method: as §1

BT-474 [13] = test: normalised viability (% of control), CellTiter-Blue; higher = more viable cells (100 = DMSO, 0 = benzethonium chloride kill control); conditions: incubation time: 72 h
Procedure: (§2)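 DSRT, CellTiter-Blue viability, 72 h incubation. Signal is normalised to DMSO and benzethonium chloride controls. Value is the normalised response at dose 1.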

BT-549 = test: as above; conditions: incubation time: 72 h
Procedure: as §2

CAL-120 = test: as above; conditions: incubation time: 72 h
Procedure: as §2

CAL-148 [14] = test: as above; conditions: incubation time: 72 h
Procedure: as §2

CAL-51 = test: as above; conditions: incubation time: 72 h
Procedure: as §2

CAL-85-1 [15] = test: as above; conditions: incubation time: 72 h
Procedure: as §2

DU-4475 = test: as above; conditions: incubation time: 72 h
Procedure: as §2

HCC1143 [16] = test: as above; conditions: incubation time: 72 h
Procedure: as §2

HCC1599 [17] = test: as above; conditions: incubation time: 72 h
Procedure: as §2

HCC1937 = test: as above; conditions: incubation time: 72 h
Procedure: as §2

HDQ-P1 = test: as above; conditions: incubation time: 72 h
Procedure: as §2

Hs578T [18] = test: as above; conditions: incubation time: 72 h
Procedure: as §2

MDA-MB-231 [19] = test: as above; conditions: incubation time: 72 h
Procedure: as §2

MDA-MB-436 = test: as above; conditions: incubation time: 72 h
Procedure: as §2

MDA-MB-453 [20] = test: as above; conditions: incubation time: 72 h
Procedure: as §2

MDA-MB-468 [21] = test: as above; conditions: incubation time: 72 h
Procedure: as §2

MFM-223 = test: as above; conditions: incubation time: 72 h
Procedure: as §2

SK-BR-3 [22] = test: as above; conditions: incubation time: 72 h
Procedure: as §2

COc1ccc(-c2ccc3c(N4CCOC[C@@H]4C)nc(N4CCOC[C@@H]4C)nc3n2)cc1CO [AZD8055]
EC50, CellTiter-Blue viability (MDA-MB-453 [1]): 17.1 nM | normalised viability (BT-474 [2]; 10000 nM): 16.9% | normalised viability (CAL-148 [3]; 100 nM): 30.4% | normalised viability (CAL-85-1 [4]; 100 nM): 46.3% | normalised viability (HCC1599 [5]; 10000 nM): 43.4% | normalised viability (Hs578T [6]; 10000 nM): 17.6% | normalised viability (MDA-MB-231 [7]; 10000 nM): 22.7% | normalised viability (MDA-MB-468 [8]; 10000 nM): 21.4% | normalised viability (CAL-148 [9]; 3 nM): 89.3% | normalised viability (CAL-85-1 [10]; 3 nM): 85.1% | normalised viability (HCC1143 [11]; 10 nM): 100% | normalised viability (SK-BR-3 [12]; 10 nM): 72.5% | normalised viability (BT-474 [13]; 1 nM): 103% | normalised viability (BT-549; 1 nM): 106% | normalised viability (CAL-120; 1 nM): 93.2% | normalised viability (CAL-148 [14]; 1 nM): 94.6% | normalised viability (CAL-51; 1 nM): 94% | normalised viability (CAL-85-1 [15]; 1 nM): 96.2% | normalised viability (DU-4475; 1 nM): 103% | normalised viability (HCC1143 [16]; 1 nM): 98.2% | normalised viability (HCC1599 [17]; 1 nM): 97.8% | normalised viability (HCC1937; 1 nM): 102% | normalised viability (HDQ-P1; 1 nM): 104% | normalised viability (Hs578T [18]; 1 nM): 105% | normalised viability (MDA-MB-231 [19]; 1 nM): 98.3% | normalised viability (MDA-MB-436; 1 nM): 113% | normalised viability (MDA-MB-453 [20]; 1 nM): 89.3% | normalised viability (MDA-MB-468 [21]; 1 nM): 109% | normalised viability (MFM-223; 1 nM): 93% | normalised viability (SK-BR-3 [22]; 1 nM): 103%

Cn1c(=O)n(-c2ccc(C(C)(C)C#N)cc2)c2c3cc(-c4cnc5ccccc5c4)ccc3ncc21 [NVP-BEZ235]
EC50, CellTiter-Blue viability (MDA-MB-453 [1]): 8.31 nM | normalised viability (BT-474 [2]; 1000 nM): 41% | normalised viability (CAL-148 [3]; 10 nM): 73.5% | normalised viability (CAL-85-1 [4]; 10 nM): 68.6% | normalised viability (HCC1599 [5]; 1000 nM): 55.2% | normalised viability (Hs578T [6]; 1000 nM): 24.7% | normalised viability (MDA-MB-231 [7]; 1000 nM): 27.1% | normalised viability (MDA-MB-468 [8]; 1000 nM): 28.1% | normalised viability (CAL-148 [9]; 0.3 nM): 95.2% | normalised viability (CAL-85-1 [10]; 0.3 nM): 96.6% | normalised viability (HCC1143 [11]; 1 nM): 83.5% | normalised viability (SK-BR-3 [12]; 1 nM): 105% | normalised viability (BT-474 [13]; 0.1 nM): 105% | normalised viability (BT-549; 0.1 nM): 112% | normalised viability (CAL-120; 0.1 nM): 96.6% | normalised viability (CAL-148 [14]; 0.1 nM): 114% | normalised viability (CAL-51; 0.1 nM): 102% | normalised viability (CAL-85-1 [15]; 0.1 nM): 96.9% | normalised viability (DU-4475; 0.1 nM): 129% | normalised viability (HCC1143 [16]; 0.1 nM): 98.9% | normalised viability (HCC1599 [17]; 0.1 nM): 125% | normalised viability (HCC1937; 0.1 nM): 95.9% | normalised viability (HDQ-P1; 0.1 nM): 113% | normalised viability (Hs578T [18]; 0.1 nM): 105% | normalised viability (MDA-MB-231 [19]; 0.1 nM): 111% | normalised viability (MDA-MB-436; 0.1 nM): 119% | normalised viability (MDA-MB-453 [20]; 0.1 nM): 96.8% | normalised viability (MDA-MB-468 [21]; 0.1 nM): 108% | normalised viability (MFM-223; 0.1 nM): 99.3% | normalised viability (SK-BR-3 [22]; 0.1 nM): 100%

C[C@]12CC[C@H](O)CC1=CC[C@@H]1[C@@H]2CC[C@]2(C)C(c3cccnc3)=CC[C@@H]12 [Abiraterone]
normalised viability (BT-474 [2]; 5000 nM): 98.8% | normalised viability (CAL-148 [3]; 50 nM): 90.7% | normalised viability (CAL-85-1 [4]; 50 nM): 96.4% | normalised viability (HCC1599 [5]; 5000 nM): 120% | normalised viability (Hs578T [6]; 5000 nM): 110% | normalised viability (MDA-MB-231 [7]; 5000 nM): 131% | normalised viability (MDA-MB-468 [8]; 5000 nM): 111% | normalised viability (CAL-148 [9]; 1.5 nM): 91.5% | normalised viability (CAL-85-1 [10]; 1.5 nM): 93.2% | normalised viability (HCC1143 [11]; 5 nM): 67.2% | normalised viability (SK-BR-3 [12]; 5 nM): 97.7% | normalised viability (BT-474 [13]; 0.5 nM): 86.1% | normalised viability (BT-549; 0.5 nM): 111% | normalised viability (CAL-120; 0.5 nM): 78.9% | normalised viability (CAL-148 [14]; 0.5 nM): 103% | normalised viability (CAL-51; 0.5 nM): 97.6% | normalised viability (CAL-85-1 [15]; 0.5 nM): 82.8% | normalised viability (DU-4475; 0.5 nM): 99.4% | normalised viability (HCC1143 [16]; 0.5 nM): 86.6% | normalised viability (HCC1599 [17]; 0.5 nM): 102% | normalised viability (HCC1937; 0.5 nM): 99.8% | normalised viability (HDQ-P1; 0.5 nM): 109% | normalised viability (Hs578T [18]; 0.5 nM): 95.3% | normalised viability (MDA-MB-231 [19]; 0.5 nM): 96% | normalised viability (MDA-MB-436; 0.5 nM): 114% | normalised viability (MDA-MB-453 [20]; 0.5 nM): 108% | normalised viability (MDA-MB-468 [21]; 0.5 nM): 102% | normalised viability (MFM-223; 0.5 nM): 90.2% | normalised viability (SK-BR-3 [22]; 0.5 nM): 96.1%

— the supplement of paper PMC4862054
